Measurements: patent US12496308B2
Structures can show the parent of a compound that is named as a salt.

Tests used:
[1] = tested on: mouse water toxicity model; test: Mouse water toxicity model - survival curves; settings: 0.76 mg/kg, versus placebo
Procedure: Mouse Water Toxicity Model—Survival Curves: The in vivo efficacies of the compounds are tested using the mouse water toxicity model, where a mouse is injected with water at 20% of its body weight. […] The resulting euvolemic hyponatremia rapidly leads to CE, making this a practical model to test an inhibitor of the CNS aquaporin, AQP4b.
The ability of mice to survive H2O toxicity is determined in three experiments using 10-12 mice each (16-19 weak old male/female). Deionized water is prepared for injection with either 0.39 mg/kg phenylbenzamide (placebo) or 0.76 mg/kg with test compound.

[2] = tested on: mouse water toxicity model for cerebral edema; test: Mouse water toxicity model - brain volume by MRI; format: in vivo
Procedure: Mouse Water Toxicity Model—Brain Volume by Magnetic Resonance Imaging (MRI): MRI is used to measure changes in brain volume in response to water shock, using the water toxicity model. As described for the survival and brain water content studies above, mice are injected, IP, with a water bolus alone or water bolus and test compound at 0.76 mg/kg, and changes in brain volume as detected by MRI are monitored. […] High resolution T2-weighted sagittal scans (resolution=0.1 mm×0.1 mm×0.7 mm) of the mouse head are obtained prior to water injection, 5.67 min post water injection, and then every 5.2 minutes until the animal expires from the water loading. Each scan contains twenty-five 0.7 mm contiguous imaging slices of which 14-15 slices contain a portion of the brain. The cross sectional area of the brain in each imaging slice is measured by manual region-of-interest selection using ImageJ. Brain volumes are then calculated for each scan by summing the individual cross sectional brain areas and multiplying by the slice thickness (0.7 mm).

[3] = Solid state stability (hydrolysis to the phenol) at room temperature
[4] = Stability and pH of aqueous solutions; format: physicochemical; settings: for longer term stability of solutions: solutions at RT
Procedure: Water is added and the mixture is stirred or sonicated. Yields 10 mg/ml to 20 mg/ml solutions stable for at least 24 hrs.

[5] = tested on: middle cerebral artery occlusion (MCAo) model; test: MCAo stroke model - neurological outcome; settings: mouse, in vivo
Procedure: To mimic this injury in mice, an intraluminal monofilament model of middle cerebral artery occlusion (MCAo) is used. Occlusion is achieved by inserting a surgical filament into the external carotid artery (ECA) and threading it forward into the internal carotid artery (ICA) until the tip blocks the origin of the MCA. […] This technique is used to study a temporary occlusion in which the MCA is blocked for one hour. The filament is then removed allowing reperfusion to occur for 24 hours before the animal's brain is imaged using T2-weighted scans in a 9.4T Bruker MRI scanner at the Case Center for Imaging Research (FIG. 7).
Neurological Outcome—In the same experiment as above, animals are scored for neurological outcome on a simple 5 point scale described in Manley, G. T. et al., Aquaporin-4 Deletion in Mice Reduces Brain Edema After Acute Water Intoxication and Ischemic Stroke, Nature Medicine, 6, 159-163 (2000).

[6] = tested on: middle cerebral artery occlusion (MCAo) model; test: MCAo stroke model - cerebral edema (hemispheric brain volume by MRI)
Procedure: To mimic this injury in mice, an intraluminal monofilament model of middle cerebral artery occlusion (MCAo) is used. Occlusion is achieved by inserting a surgical filament into the external carotid artery (ECA) and threading it forward into the internal carotid artery (ICA) until the tip blocks the origin of the MCA. […] This technique is used to study a temporary occlusion in which the MCA is blocked for one hour. The filament is then removed allowing reperfusion to occur for 24 hours before the animal's brain is imaged using T2-weighted scans in a 9.4T Bruker MRI scanner at the Case Center for Imaging Research (FIG. 7). […] Solid line highlights the region of infarct in the MCAo brain.
Cerebral Edema—Mice are given saline or treated with 2-{[3,5-bis(trifluoromethyl)phenyl]carbamoyl}-4-chlorophenyl phosphate disodium salt (Compound 5) by multi-dosing at 5 mg/kg i.p. every three hours (n=8 per treatment). […] Ipsilateral and contralateral hemispheric volume is measured from the T2-weighted MR images of mice 24 hours post-icus. Relative change in hemispheric volume is calculated as a percent of the difference between ipsilateral brain volume (Vi) and contralateral brain volume (Vc) relative to the contralateral brain volume (Percent Change in Hemispheric Brain Volume=((Vi−Vc)/Vc)×100%.

[7] = Bioconversion of prodrug salt in mouse plasma in vitro; format: in vitro ADME; settings: 20° C.

## O=C(Nc1cc(C(F)(F)F)cc(C(F)(F)F)c1)c1cc(Cl)ccc1O [Compound 1]
[1]
  improvement of time to 50% survival: roughly 52 min
[1]; n=34
  improvement of percent survival: 3.2 fold
[2]; 0.76 mg/kg
  extent of CE during the period of observation: reduced
[2]; 0.76 mg/kg IP, fit to single exponential model
  rate of CE development: 0.032 min⁻¹
[2]; 0.76 mg/kg, versus no drug
  reduction of rate of CE development: 2.5 fold
[2]; n=14 mice
  Cerebral Edema Rate by MRI: 0.032 min⁻¹

## O=C(Nc1cc(C(F)(F)F)cc(C(F)(F)F)c1)c1cc(Cl)ccc1OP(=O)([O-])[O-].[Na+].[Na+] [Compound 5]
[3]
  hydrolysis in the solid state: about 10 % per day
[4]
  longer term stability of solutions: about 1 % per day
[5]
  progression to severe paralysis or death: did not progress into a state of severe paralysis or death
[6]; 24 hours after MCAo, 5 mg/kg i.p. every three hours, n=8, ±SEM
  relative change in ipsilateral brain volume: 4.2±1.7%
[6]; versus saline controls
  reduction in brain swelling after MCAo: 3.2 fold

## O=C(Nc1cc(C(F)(F)F)cc(C(F)(F)F)c1)c1cc(Cl)ccc1OP(=O)(O)O [Formula I]
[3]; solid sample kept at RT
  stability at RT: stable at RT for a week or more
[4]; 5 mg/mL in 1% Na2HPO4
  pH of solution: about 7
[4]; 5 mg/mL in 2% Na2HPO4
  pH of solution: 7.4

## O=C(Nc1cc(C(F)(F)F)cc(C(F)(F)F)c1)c1cc(Cl)ccc1OP(=O)(O)O [bis ethanolamine salt]
[3]
  hydrolysis in the solid state: about 10 % per day
[4]; in water
  Final pH of solutions: about 7.5
[4]
  longer term stability of solutions: about 1 % per day
[7]
  time sufficient to render prodrug salt undetectable: Less than 5 minutes

## O=C(Nc1cc(C(F)(F)F)cc(C(F)(F)F)c1)c1cc(Cl)ccc1OP(=O)(O)O [mono ethanolamine salt]
[3]; after 5 days at RT
  hydrolysis: about 10%

## O=C(Nc1cc(C(F)(F)F)cc(C(F)(F)F)c1)c1cc(Cl)ccc1OP(=O)([O-])O.[Na+] [mono sodium salt]
[3]
  hydrolysis in the solid state: about 10 % per day
[4]
  longer term stability of solutions: about 1 % per day
